Results from ChEMBL document CHEMBL1135363, “N-acyl-L-phenylalanine derivatives as potent VLA-4 antagonists that mimic a cyclic peptide conformation” (Bioorg Med Chem Lett, 2002).

Experiments:
Integrin alpha-4/beta-1 [1] = target: T1, Integrin alpha-4/beta-1 (Homo sapiens, UniProt P05556+P13612); assay: Concentration required to inhibit the VCAM-Very late antigen4 (VLA4) interaction in ELISA cell-based assay; format: functional
Integrin alpha-4/beta-1 [2] = target: T1, Integrin alpha-4/beta-1; assay: Concentration required to inhibit the VCAM-Very late antigen4 (VLA4) interaction in Ramos cell-based assay; format: functional

T1 sequence (P05556 whole entry): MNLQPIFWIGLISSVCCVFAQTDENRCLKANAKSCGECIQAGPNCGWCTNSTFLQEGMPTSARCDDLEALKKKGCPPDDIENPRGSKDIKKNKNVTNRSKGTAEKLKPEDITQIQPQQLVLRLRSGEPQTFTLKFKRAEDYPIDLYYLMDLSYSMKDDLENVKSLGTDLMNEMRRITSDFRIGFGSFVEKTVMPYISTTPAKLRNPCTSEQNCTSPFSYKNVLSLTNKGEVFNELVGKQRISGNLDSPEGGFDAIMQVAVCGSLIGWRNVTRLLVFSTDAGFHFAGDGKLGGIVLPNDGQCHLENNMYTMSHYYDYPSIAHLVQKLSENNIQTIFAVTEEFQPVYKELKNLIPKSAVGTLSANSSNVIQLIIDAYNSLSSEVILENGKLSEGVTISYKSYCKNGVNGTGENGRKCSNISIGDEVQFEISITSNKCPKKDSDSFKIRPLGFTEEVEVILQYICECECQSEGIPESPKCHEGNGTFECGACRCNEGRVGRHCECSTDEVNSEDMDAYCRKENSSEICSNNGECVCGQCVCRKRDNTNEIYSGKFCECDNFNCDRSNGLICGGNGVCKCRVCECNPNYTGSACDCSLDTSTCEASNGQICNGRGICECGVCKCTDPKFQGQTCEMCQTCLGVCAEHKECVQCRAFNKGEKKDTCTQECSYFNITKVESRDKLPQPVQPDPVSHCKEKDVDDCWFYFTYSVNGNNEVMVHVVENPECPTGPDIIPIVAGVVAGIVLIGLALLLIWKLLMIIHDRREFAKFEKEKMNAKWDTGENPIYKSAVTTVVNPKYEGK
T1 sequence (P13612 whole entry): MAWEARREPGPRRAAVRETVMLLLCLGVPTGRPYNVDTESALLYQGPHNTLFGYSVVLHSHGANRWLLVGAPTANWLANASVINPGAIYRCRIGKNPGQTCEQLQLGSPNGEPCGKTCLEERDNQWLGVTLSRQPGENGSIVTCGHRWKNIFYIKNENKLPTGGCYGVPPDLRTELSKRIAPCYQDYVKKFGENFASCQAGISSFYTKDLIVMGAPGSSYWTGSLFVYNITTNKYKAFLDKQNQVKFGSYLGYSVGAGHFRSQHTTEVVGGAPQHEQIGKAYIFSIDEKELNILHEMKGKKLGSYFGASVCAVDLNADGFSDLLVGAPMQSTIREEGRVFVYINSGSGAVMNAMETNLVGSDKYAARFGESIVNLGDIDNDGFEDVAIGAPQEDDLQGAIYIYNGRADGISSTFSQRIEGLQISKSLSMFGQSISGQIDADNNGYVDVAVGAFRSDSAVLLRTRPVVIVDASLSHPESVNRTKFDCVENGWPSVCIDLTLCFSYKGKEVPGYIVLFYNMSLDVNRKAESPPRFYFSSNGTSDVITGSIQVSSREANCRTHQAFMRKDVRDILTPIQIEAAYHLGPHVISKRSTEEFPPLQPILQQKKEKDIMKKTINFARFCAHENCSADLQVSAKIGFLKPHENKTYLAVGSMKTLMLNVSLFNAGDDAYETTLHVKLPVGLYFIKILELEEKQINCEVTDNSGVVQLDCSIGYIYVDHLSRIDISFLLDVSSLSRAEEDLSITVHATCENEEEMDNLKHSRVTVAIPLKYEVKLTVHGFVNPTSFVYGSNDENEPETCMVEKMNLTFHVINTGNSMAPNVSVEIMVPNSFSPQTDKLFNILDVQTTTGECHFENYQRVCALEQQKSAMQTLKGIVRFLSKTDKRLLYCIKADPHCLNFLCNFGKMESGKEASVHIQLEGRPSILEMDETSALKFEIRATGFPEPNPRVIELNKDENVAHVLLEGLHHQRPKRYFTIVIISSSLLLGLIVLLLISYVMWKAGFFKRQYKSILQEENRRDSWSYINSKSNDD

Compound	IC50 (Integrin alpha-4/beta-1 [1]) [nM]	IC50 (Integrin alpha-4/beta-1 [2]) [nM]
CCN(CC)C(=O)C(Cc1ccc(O)cc1)NC(=O)c1ccc(C[C@H](NC(=O)[C@@H]2CCC(=O)N2Cc2ccccc2)C(=O)O)cc1 (stereo not given in full)	5	550
COc1ccc(CNC(=O)c2ccc(C[C@H](NC(=O)[C@@H]3CCC(=O)N3Cc3ccccc3)C(=O)O)cc2)cc1	61	
CCN(CC)C(=O)C(Cc1ccc(O)cc1)NC(=O)c1cccc(C[C@H](NC(=O)[C@@H]2CCC(=O)N2Cc2ccccc2)C(=O)O)c1 (stereo not given in full)	240	24400
CC(=O)c1ccccc1NC(=O)c1ccc(C[C@H](NC(=O)[C@@H]2CCC(=O)N2Cc2ccccc2)C(=O)O)cc1	4	940
CC(=O)N[C@@H](Cc1ccc(O)cc1)C(=O)Nc1ccc(C[C@H](NC(=O)[C@H]2CCC(=O)N2Cc2ccccc2)C(=O)O)cc1	6.5	2100
C[C@H](NC(=O)c1ccc(C[C@H](NC(=O)[C@@H]2CCC(=O)N2Cc2ccccc2)C(=O)O)cc1)c1ccccc1	27	
O=C(Nc1ccccc1)c1ccc(C[C@H](NC(=O)[C@@H]2CCC(=O)N2Cc2ccccc2)C(=O)O)cc1	57	
O=C(Nc1ccc(C[C@H](NC(=O)[C@H]2CCC(=O)N2Cc2ccccc2)C(=O)O)cc1)c1c(Cl)cccc1Cl	0.37	
O=C(O)[C@H](Cc1cccc(C(=O)N2CCN(S(=O)(=O)c3ccccc3)CC2)c1)NC(=O)[C@@H]1CCC(=O)N1Cc1ccccc1	60	

Further lines, results first:

IC50 (Integrin alpha-4/beta-1 [1]) [nM]	IC50 (Integrin alpha-4/beta-1 [2]) [nM]	Compound
3	960	O=C(O)[C@H](Cc1ccc(C(=O)N2CCN(C(=O)c3ccccc3)CC2)cc1)NC(=O)[C@@H]1CCC(=O)N1Cc1ccccc1
11	2200	O=C(O)[C@H](Cc1ccc(C(=O)N2CCN(S(=O)(=O)c3ccccc3)CC2)cc1)NC(=O)[C@@H]1CCC(=O)N1Cc1ccccc1
3	1700	O=C(O)[C@H](Cc1ccc(C(=O)N2CCN(C(=O)c3ccc(O)cc3)CC2)cc1)NC(=O)[C@@H]1CCC(=O)N1Cc1ccccc1
120		O=C(O)[C@H](Cc1cccc(C(=O)N2CCN(C(=O)c3ccccc3)CC2)c1)NC(=O)[C@@H]1CCC(=O)N1Cc1ccccc1
4	320	COc1ccc(C(=O)N2CCN(C(=O)c3ccc(C[C@H](NC(=O)[C@@H]4CCC(=O)N4Cc4ccccc4)C(=O)O)cc3)CC2)cc1
7	5500	CC(=O)N1CCN(C(=O)c2ccc(C[C@H](NC(=O)[C@@H]3CCC(=O)N3Cc3ccccc3)C(=O)O)cc2)CC1
12	9530	COc1ccc(S(=O)(=O)N2CCN(C(=O)c3ccc(C[C@H](NC(=O)[C@@H]4CCC(=O)N4Cc4ccccc4)C(=O)O)cc3)CC2)cc1
3	470	O=C(O)[C@H](Cc1ccc(C(=O)N2CCN(C(=O)c3cccc(O)c3)CC2)cc1)NC(=O)[C@@H]1CCC(=O)N1Cc1ccccc1
73	7800	COc1ccc(S(=O)(=O)N2CCN(C(=O)c3cccc(C[C@H](NC(=O)[C@@H]4CCC(=O)N4Cc4ccccc4)C(=O)O)c3)CC2)cc1
